Data published in PubChem BioAssay (NCI).
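All cell lines were grown in 96-well plates and treated with compound for 48 hours. TGI: total growth inhibition.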

Key:
Assay in all cases: NCI-60 cell line screen, 48 h
[1] = test system: SF-539 CNS
[2] = test system: KM12 colon
[3] = test system: MDA-N
[4] = test system: CCRF-CEM leukemia
[5] = test system: SK-MEL-2 melanoma
[6] = test system: IGROV1 ovarian
[7] = test system: M14 melanoma
[8] = test system: HT29 colon
[9] = test system: HCT-15 colon
[10] = test system: K-562 leukemia
[11] = test system: A549 NSCLC
[12] = test system: NCI-H460 lung
[13] = test system: T-47D breast
[14] = test system: MOLT-4 leukemia
[15] = test system: HOP-92 NSCLC
[16] = test system: ACHN renal
[17] = test system: HL-60(TB) leukemia
[18] = test system: RPMI-8226 leukemia
[19] = test system: SK-MEL-5 melanoma
[20] = test system: NCI-H226 lung
[21] = test system: MALME-3M melanoma
[22] = test system: UACC-257 melanoma
[23] = test system: OVCAR-4 ovarian
[24] = test system: NCI-H522 lung
[25] = test system: LOX IMVI melanoma
[26] = test system: OVCAR-8 ovarian
[27] = test system: HCC-2998 colon
[28] = test system: SW-620 colon
[29] = test system: HCT-116 colon
[30] = test system: EKVX NSCLC
[31] = test system: 786-0 renal
[32] = test system: UO-31 renal
[33] = test system: CAKI-1 renal
[34] = test system: TK-10 renal
[35] = test system: U251 CNS
[36] = test system: UACC-62 melanoma
[37] = test system: SK-MEL-28 melanoma
[38] = test system: OVCAR-5 ovarian
[39] = test system: SN12C renal
[40] = test system: SNB-19 CNS
[41] = test system: MCF7 breast
[42] = test system: BT-549 breast
[43] = test system: NCI/ADR-RES ovarian
[44] = test system: SR leukemia
[45] = test system: COLO 205 colon
[46] = test system: MDA-MB-435
[47] = test system: MDA-MB-231 breast
[48] = test system: HS 578T breast
[49] = test system: A498 renal
[50] = test system: SNB-75 CNS
[51] = test system: DU-145 prostate
[52] = test system: PC-3 prostate
[53] = test system: RXF 393 renal
[54] = test system: NCI-H23 lung
[55] = test system: SK-OV-3 ovarian
[56] = test system: HOP-62 NSCLC
[57] = test system: SF-295 CNS

For `O=C1CSC2(CC(/C=C/c3ccccc3)=NN2c2cccc(S(=O)(=O)O)c2)N1c1nc2ccccc2s1` (stereo unspecified), the TGI [1] was > 100 µM, the TGI [2] was 38.3 µM and the TGI [3] was > 100 µM. It also gave a TGI [4] of 49.5 µM, a TGI [5] of 49.5 µM and a TGI [6] of 56.6 µM. The TGI [7] was > 100 µM, the TGI [8] was > 100 µM and the TGI [9] was > 100 µM. The TGI [10] was > 100 µM, the TGI [11] was > 100 µM and the TGI [12] was > 100 µM. The TGI [13] was 52.5 µM, the TGI [14] was 91.5 µM and the TGI [15] was 77.3 µM. For the same compound, the TGI [16] was > 100 µM, the TGI [17] was 94.6 µM and the TGI [18] was 53.7 µM. The TGI [19] was > 100 µM, the TGI [20] was > 100 µM and the TGI [21] was > 100 µM. For the same compound, the TGI [22] was > 100 µM, the TGI [23] was 54.1 µM and the TGI [24] was 37 µM. The TGI [25] was 23.7 µM, the TGI [26] was 35.8 µM and the TGI [27] was > 100 µM. For the same compound, the TGI [28] was > 100 µM, the TGI [29] was > 100 µM and the TGI [30] was > 100 µM. For the same compound, the TGI [31] was 33 µM, the TGI [32] was 35.7 µM and the TGI [33] was > 100 µM. For the same compound, the TGI [34] was 46.9 µM, the TGI [35] was 42.1 µM and the TGI [36] was 45.2 µM. For the same compound, the TGI [37] was > 100 µM, the TGI [38] was 56.5 µM and the TGI [39] was 71.2 µM. The TGI [40] was 51.7 µM, the TGI [41] was 45 µM and the TGI [42] was 52.8 µM. For the same compound, the TGI [43] was > 100 µM, the TGI [44] was 61 µM and the TGI [45] was > 100 µM. For the same compound, the TGI [46] was 37.2 µM, the TGI [47] was 47.8 µM and the TGI [48] was > 100 µM. It also gave a TGI [49] of 64.3 µM, a TGI [50] of 59.2 µM and a TGI [51] of 54.4 µM. The TGI [52] was 59.3 µM, the TGI [53] was 51.7 µM and the TGI [54] was 56.7 µM.

With `CN(C)c1nc2sc3c(c2c(=O)o1)CCCC3` the TGI [55] was > 100 µM, the TGI [1] was > 100 µM and the TGI [2] was > 100 µM. The TGI [3] was > 100 µM, the TGI [4] was > 100 µM and the TGI [5] was 99.4 µM. The TGI [6] was > 100 µM, the TGI [7] was > 100 µM and the TGI [8] was > 100 µM. The TGI [9] was > 100 µM, the TGI [10] was > 100 µM and the TGI [11] was > 100 µM. The TGI [12] was > 100 µM, the TGI [13] was > 100 µM and the TGI [14] was > 100 µM. The TGI [15] was > 100 µM, the TGI [16] was > 100 µM and the TGI [17] was > 100 µM. For the same compound, the TGI [18] was > 100 µM, the TGI [19] was > 100 µM and the TGI [20] was 81 µM. The TGI [21] was > 100 µM, the TGI [22] was > 100 µM and the TGI [23] was > 100 µM. The TGI [24] was > 100 µM, the TGI [25] was > 100 µM and the TGI [26] was > 100 µM. The TGI [27] was > 100 µM, the TGI [28] was > 100 µM and the TGI [29] was > 100 µM. For the same compound, the TGI [30] was > 100 µM, the TGI [31] was > 100 µM and the TGI [32] was > 100 µM. The TGI [33] was > 100 µM, the TGI [34] was > 100 µM and the TGI [35] was > 100 µM. The TGI [36] was > 100 µM, the TGI [37] was > 100 µM and the TGI [38] was > 100 µM. For the same compound, the TGI [39] was > 100 µM, the TGI [56] was > 100 µM and the TGI [40] was > 100 µM. For the same compound, the TGI [41] was > 100 µM, the TGI [42] was 65.5 µM and the TGI [43] was > 100 µM. For the same compound, the TGI [44] was > 100 µM, the TGI [45] was 53.1 µM and the TGI [46] was > 100 µM. The TGI [47] was > 100 µM, the TGI [48] was > 100 µM and the TGI [57] was > 100 µM. The TGI [49] was 66.8 µM, the TGI [50] was 95.2 µM and the TGI [51] was > 100 µM. For the same compound, the TGI [52] was > 100 µM, the TGI [53] was > 100 µM and the TGI [54] was > 100 µM.
